Data as given in patent publication EP1388013B1, “COMPOSITIONS AND METHODS FOR THE USE OF FIBRONECTIN FRAGMENTS IN THE DIAGNOSIS OF CANCER” (THE REGENTS OF THE UNIVERSITY OF MICHIGAN, priority 2001, dated 2002).
No end group written: not given here.

Tests used:
[1] = test system: metastatic DU-145 prostate cancer cells; assay: SU-ECM invasion assay, DU-145 cells; format: cell-based, human; details: PHSRN sequence of fibronectin alone; Example 4
Method: (§1) Adult Strongylocentrotus purpuratus sea urchins were obtained from Pacific BioMarine, and their embryos were cultured to the early pluteus stage in artificial sea water at 15°C. SU-ECM were prepared from them by treatment with nonionic detergent and sterilized by dilution in the appropriate media.
(§2) […] When appropriate, purified bovine plasma fibronectin (Sigma, St. Louis, Mo), purified 120 kDa chymotryptic fragment (Gibco BRL), PHSRN or PHSCN peptides (synthesized at the Biomedical Research Core Facilities of the University of Michigan), or GRGDSP or GRGESP peptides (Gibco BRL) were added to the resuspended cells prior to placement of the cells on SU-ECM. In each well of a plate used for an invasion assay, SU-ECM were placed in 0.5 ml of the appropriate medium, and 0.5ml of the resuspended cells dropped on their exterior surfaces. Invasion assays were incubated 1 to 16 hours prior to scoring. If some circumstances, invasion assays were fixed in phosphate-buffered saline (PBS) with 2% formaldehyde for 5 minutes at room temperature, then rinsed into PBS.
(§3) Invasion assays were coded and scored blindly by microscopic examination under phase contrast at 200- and 400-fold magnification. Each cell contacting an SU-ECM was scored for its position relative to the exterior or interior surfaces. A cell was judged to have invaded if it was located on an interior surface below the focal plane passing through the upper surface of the SU-ECM, but above the focal plane passing through its lower surface. The minimum viability of the cells in each assay was always ascertained at the time of assay by determining the fraction of spread, adherent cells on the bottom of each well scored.
An invasion frequency is defined as the fraction of cells in contact with basement membranes which were located in their interiors at the time of assay. Thus, an invasion frequency of 1 denotes invasion by 100% of the cells in contact with basement membranes. Invasion frequencies were determined multiple times for each cell type assayed. For each type of cell assayed the mean and standard deviation of the invasion frequencies were calculated.
The method of Example 4 is employed, with the addition of varying concentrations of the PHSCN peptide.
Thus, the procedure in Example 4 provides a method for determining the inhibitory potential of the PHSCN peptide by comparing the number of cell invasions in the presence of the PHSCN peptide, with the number of cell invasions in the absence of the PHSCN peptide.
In this example, in vitro invasion of cancer cells into substrates is inhibited with peptides that have been chemically modified with protecting groups and peptides having protecting groups as well as the modification wherein an L-amino acid has been replaced with the D-isomer. PHSCN peptide, blocked PHSCN peptide, and blocked PHSCN peptide with a D-cysteine instead of the L-isomer, were tested (Figure 4A, 4B).
In this example, in vitro invasion of cancer cells into substrates is inhibited with non-peptide mimetics in comparison with chemically modified peptides (on a molar basis). The peptides of Example 10 (i.e. peptides chemically modified with protecting groups and peptides having protecting groups as well as the modification wherein an L-amino acid has been replaced with the D-isomer) were compared with the non-peptide mimetics DL-N-Acetylhomocysteinethiolactone, Thiobutyrolactone, and Mercaptopropionic acid, in order to investigate the structure activity relationship for invasion inhibition by interaction with the PHSRN-binding pocket of the α5β1 fibronectin receptor (Figure 7)

[2] = test system: normal human prostate epithelial cells; assay: SU-ECM invasion assay, normal prostate epithelial cells; format: cell-based; details: SU-ECM, serum containing environment; Figure 12
Method: as §1, §2, §3
An invasion frequency is defined as the fraction of cells in contact with basement membranes which were located in their interiors at the time of assay. […] Invasion frequencies were determined multiple times for each cell type assayed. For each type of cell assayed the mean and standard deviation of the invasion frequencies were calculated. […]

[3] = test system: Normal neonatal keratinocytes; assay: SU-ECM invasion assay, keratinocytes; format: cell-based; details: in the presence of serum, Figure 11
Source text: In one example cells for the invasion assay are harvested by rinsing in Hanks' balanced salt solution, followed by brief treatment with 0.25% trypsin, 0.02% EDTA, and pelleting and resuspension in the appropriate medium with or without 5% FCS at a density of about 50,000 cells per ml. When appropriate, purified bovine plasma fibronectin (from Sigma, St. Louis, Mo), purified 120 kDa chymotryptic fragment (Gibco BRL) or PHSRN peptides (synthesized at the Biomedical Research Core Facilities of the University of Michigan) are added to the resuspended cells prior to placement of the cells on SU-ECM. […]
Invasion assays are coded and scored blindly by microscopic examination under phase contrast at 200- and 400-fold magnification. Each cell contacting an SU-ECM is scored for its position relative to the exterior or interior surfaces. […] The minimum viability of the cells in each assay is always ascertained at the time of assay by determining the fraction of spread, adherent cells on the bottom of each well scored.
An invasion frequency is defined as the fraction of cells in contact with basement membranes which are located in their interiors at the time of assay. […] Invasion frequencies are determined multiple times for each cell type assayed. For each type of cell assayed the mean and standard deviation of the invasion frequencies were calculated. […]

Q: Which results are given for PHSRN [PHSRN]?
A: induction of DU-145 cell invasion of SU-ECM [1]: induced to invade; induction of invasive behavior of human prostate epithelial cells [2]: induces the invasive behaviors; maximal invasion percentages for keratinocytes [3]: about 20%
